≈ marks a conversion by molar mass, not a printed value. Where two headings read alike, the source gives them in different places.
How the values were obtained:
[1] = tested on: isolated guinea pig lung strips, Platelet activating factor (PAF); experiment: antagonist of PAF-induced contraction of isolated guinea pig lung strips; format: cell-based; conditions: Cavia porcellus, read-out: Anticontractile action (lung), PAF: concentration range corresponding to the IC50 value
Text: 4. Activity as an antagonist of the contraction of isolated guinea pig lung strips
The test carried out is based on the same principle as the test indicated in the pharmacological test 3; however, lung strips are used here.
Preparation of the organ sections and experimental procedure:
The guinea pig is sacrificed under laughing gas anaesthesia. The entire pulmonary tract is exposed starting from the trachea. The lobes of the lung are cut in a circular fashion such that 3 mm wide strips are formed. The strips of the upper lobes are divided in order to obtain a total of six approximately equal size strips. The strips are suspended in the organ baths under a preload of 4 g. The nutrient solutions used are modified Krebs Henseleit solutions. When using "Platelet activating factor" (PAF) as an […], the composition of this solution corresponds to that for the agonist SP in "Test 3"; for the agonist LTD4 a Krebs Henseleit solution as in the case of the agonist KCl (Test 3) is used. 95% by volume O2, 5% by volume CO2 is used for bubbling through the bath; the bath temperature is 37° C. The experimental procedure is carried out in a therapeutically cumulative methodology, using the dosage graduations 1, 3, 6 and 10 μg/ml.
The experimental animals, organ bath, vehicles and manner of administration correspond to that stated in pharmacological test 3.
All numerical values are indicated in the unit μg/ml and relate to the concentration range of tested compound of the formula I (see example numbers in Table 1) which is necessary in order to cause a contraction which corresponds to the IC50 value.

[2] = tested on: muscle group (gastrocnemius, plantaris and soleus) of the immobilized right rear extremity; experiment: rat muscle function test: direct electrical stimulation of muscle group after 3 weeks' immobilization; format: in vivo, male Wistar rats; conditions: oral, 1x per day for 3 weeks, as a rule 25 mg/kg, ≤-12% classified as active; for Force (force under the contraction curve, right/left difference): isometric stimulation, control difference approx. 25%; for Work (performed work, right/left difference): isotonic stimulation, control approx. -25%
Text: (§1) 1. Activity in the rat muscle function test
(§2) Male Wistar rats (body weight about 300 g) were kept under standard conditions with feed and water ad libitum. The right rear extremity was immobilized by fitting a kind of "shoe" to the animals under short-term anaesthesia. Two ergonomically fitted halves of the "shoe" were cast from a liquid plastic material which is also used for the production of dental prostheses, these were put onto the animal under brief anaesthesia and joined with the aid of a wire. The material is light but hard, so that the animals cannot gnaw the material, and the "shoe" can be opened at any time to examine the condition of the immobilized extremity. The two halves were moreover padded out with chamois leather in order to avoid compressions and possible injuries due to rubbing. The system also has the advantage that the angle of immobilization is standardized in all animals; this would not be possible with a plaster cast. The chosen angle allows the animals to take up a normal sitting position despite the "shoe" and also to carry the body weight using this extremity. Only complete stretching or bending of the leg is impossible.
(§3) After 3 weeks' immobilization of the right rear extremity and simultaneous oral administration of test preparations (1× per day using a stomach tube; as a rule 25 mg/kg of body weight, in carboxymethylcellulose, the animals were weighed and anaesthetized with pentobarbital (35 mg/kg i.p.). Functional parameters were measured during direct electrical stimulation of a muscle group (gastrocnemius, plantaris and soleus). This muscle group, merely called "muscle" in the following, was exposed at the ankle tendon and tied to a force transducer via the tendon.
To determine the contractile force, the muscles were stimulated isometrically, i.e. a preload of 0.5N was applied and the muscle was stimulated by means of a series of electrical pulses, which led to a maximum contraction, every 0.7 sec for 80 msec for a period of 15 min. […] The area under this contraction curve was evaluated and the difference in percent between the right atrophic and left normal muscle compared (force under the contraction curve as difference in percent (Δ%)). The difference in the control group is approximately 25%.
An isotonic muscle stimulation was used to determine the performed work of the muscle over time. In this type of measurement, the shortening of the muscle during contraction is used as a basis. To this end, a preload which corresponds to the body weight was applied to the muscles. A series of stimulation pulses (80 msec) were triggered every 3 sec and the muscle was stimulated for 15 min. The data (contraction force and distance travelled) were converted to the work performed in the unit J using an automated system. The difference in the work performed between the immobilized atrophic and the normal muscle in the control animals was approximately -25%.
Values which are positive indicate that the functional parameters of the immobilized muscle were better than those of the contralateral normal muscle.

soleus muscle = experiment: rat muscle function test: muscle weight (atrophy of immobilized extremity); format: in vivo, male Wistar rats; conditions: oral, 1x per day for 3 weeks, as a rule 25 mg/kg, difference ≤25% classified as an effect
Text: as §1, §2
In spite of this, a significant decrease in the skeletal muscle mass (atrophy) of the immobilized extremity occurred, to be precise up to -35% in comparison with the contralateral nonimmobilized rear extremity. As the soleus muscle was the most severely affected, the changes in muscle weight after administration of preparation shown in Table 1 relate to this muscle. A difference of ≤25% between the right immobilized and left non-immobilized rear extremity was classified as an effect.
as §3

phosphodiesterase III = experiment: inhibition of phosphodiesterase III activity; format: biochemical; conditions: at 100 μM
Description: 5. Inhibition of phosphodiesterase III activity
The test is carried out using phosphodiesterase from Boehringer Mannheim (Mannheim, Germany), Order No. 108 243 according to the method of T. SAEKI, I. SAITO, Biochem. Pharm. 46, No. 5, […], pages 833-839.
All numerical values are indicated in % inhibition of the enzyme activity at 100 μM of the corresponding compound of the formula I.

[3] = lung strips, PAF, cumulative, 37° C.

Structure (SMILES): CCOP(=O)(CCCCn1c(=O)c2c(ncn2CCOC)n(C)c1=O)OCC [Example 31, Diethyl [4-(7-methoxyethyl-3-methylxanthin-1-yl)butyl]phosphonate]
- IC50 [1]: 6 to 10 µg/mL (≈ 14.4 to 24 µM)

Structure (SMILES): CCOCn1cnc2c1c(=O)n(CCCCP(=O)(OCC)OCC)c(=O)n2Cc1ccccc1 [Example 53, Diethyl [4-(3-benzyl-7-ethoxymethylxanthin-1-yl)butyl]phosphonate]
- Force (force under the contraction curve, right/left difference) [2]: -3 Δ %
- Work (performed work, right/left difference) [2]: +10 Δ %
- Muscle weight (right/left difference) (soleus muscle): 0 Δ %
- IC50 [1]: 1 to 3 µg/mL (≈ 2.03 to 6.09 µM)

Structure (SMILES): CCOP(=O)(CCCCn1cnc2c1c(=O)[nH]c(=O)n2C)OCC [Example 3, Diethyl [4-(3-methylxanthin-7-yl)butyl]phosphonate]
- Force (force under the contraction curve, right/left difference) [2]: 0 Δ %
- Work (performed work, right/left difference) [2]: 0 Δ %
- Muscle weight (right/left difference) (soleus muscle): 0 Δ %

Structure (SMILES): CCOP(=O)(CCCCn1c(=O)c2c(ncn2CCOC)n(CC)c1=O)OCC [Example 45, Diethyl [4-(3-ethyl-7-methoxyethylxanthin-1-yl)butyl]phosphonate]
- IC50 [1]: 1 to 3 µg/mL (≈ 2.32 to 6.97 µM)

Structure (SMILES): CCCCn1c(=O)c2c(ncn2CP(C)(C)=O)n(CCCC)c1=O [Example 67, [1-(1,3-Dibutylxanthin-7-yl)methyl]dimethylphosphine Oxide]
- Force (force under the contraction curve, right/left difference) [2]: -9 Δ %
- Work (performed work, right/left difference) [2]: -10 Δ %

Structure (SMILES): CCCn1c(=O)c2c(ncn2CCCCP(=O)(OCC)OCC)n(C)c1=O [Example 13]
- Force (force under the contraction curve, right/left difference) [2]: +5 Δ %
- Work (performed work, right/left difference) [2]: -3 Δ %
- Muscle weight (right/left difference) (soleus muscle): -24 Δ %
- IC50 [1]: 6 to 10 µg/mL (≈ 15 to 25 µM)

Structure (SMILES): CCOCn1cnc2c1c(=O)n(CCCCP(=O)(OCC)OCC)c(=O)n2C [Example 26, Diethyl [4-(7-ethoxymethyl-3-methylxanthin-1-yl)butyl]phosphonate]
- Force (force under the contraction curve, right/left difference) [2]: -3 Δ %
- Work (performed work, right/left difference) [2]: -17 Δ %
- Muscle weight (right/left difference) (soleus muscle): -22 Δ %

Structure (SMILES): CCCCn1cnc2c1c(=O)n(CP(C)(C)=O)c(=O)n2CCCC [Example 72, [1-(3,7-Dibutylxanthin-1-yl)methyl]dimethylphosphine Oxide]
- Force (force under the contraction curve, right/left difference) [2]: -2 Δ %
- Work (performed work, right/left difference) [2]: +4 Δ %
- Muscle weight (right/left difference) (soleus muscle): -18 Δ %

Structure (SMILES): CCOP(=O)(CCCCn1c(=O)c2c(ncn2CC2CC2)n(C)c1=O)OCC [Example 50, Diethyl [4-(7-cyclopropylmethyl-3-methylxanthin-1-yl)butyl]phosphonate]
- PDE III Inhibition (phosphodiesterase III): 51%

Structure (SMILES): CCOP(=O)(CCCCn1cnc2c1c(=O)n(C)c(=O)n2C)OCC [Example 1, Diethyl [4-(1,3-dimethylxanthin-7-yl)butyl]phosphonate]
- Work (performed work, right/left difference) [2]: -8 Δ %
- IC50 [1]: 3 to 9 µg/mL (≈ 8.06 to 24.2 µM)

Structure (SMILES): CCOCn1c(=O)c2c(ncn2CCCCP(=O)(OCC)OCC)n(C)c1=O [Example 6, Diethyl [4-(1-ethoxymethyl-3-methylxanthin-7-yl)butyl]phosphonate]
- Force (force under the contraction curve, right/left difference) [2]: -4 Δ %
- Work (performed work, right/left difference) [2]: -4 Δ %
- Muscle weight (right/left difference) (soleus muscle): 0 Δ %

Structure (SMILES): CCOCn1cnc2c1c(=O)n(CCCCP(=O)(OCC)OCC)c(=O)n2CC [Example 54, Diethyl [4-(7-ethoxymethyl-3-ethylxanthin-1-yl)butyl]phosphonate]
- IC50 [1]: 1 to 3 µg/mL (≈ 2.32 to 6.97 µM)

Structure (SMILES): Cn1c(=O)n(CCCCP(=O)(O)O)c(=O)c2[nH]cnc21 [Example 25, Diammonium [4-(3-methylxanthin-1-yl)butyl]phosphonate]
- Force (force under the contraction curve, right/left difference) [2]: +7 Δ %
- Work (performed work, right/left difference) [2]: -12 Δ %
- IC50 [1, 3]: 5 to 15 µg/mL

Structure (SMILES): CCCCn1c(=O)c2c(ncn2CCCCCP(=O)(OCC)OCC)n(CCCC)c1=O [Example 10, Diethyl [5-(1,3-dibutylxanthin-7-yl)pentyl]phosphonate]
- Force (force under the contraction curve, right/left difference) [2]: +1 Δ %
- Work (performed work, right/left difference) [2]: -9 Δ %
- Muscle weight (right/left difference) (soleus muscle): -13 Δ %

Structure (SMILES): CP(C)(=O)Cn1c(=O)c2c(ncn2CC2CC2)n(-c2ccccc2)c1=O [Example 71, [1-(7-Cyclopropylmethyl-3-phenylxanthin-1-yl)methyl]dimethylphosphine Oxide]
- Force (force under the contraction curve, right/left difference) [2]: +4 Δ %
- Work (performed work, right/left difference) [2]: +5 Δ %
- Muscle weight (right/left difference) (soleus muscle): 0 Δ %

Structure (SMILES): CCOP(=O)(CCCn1cnc2c1c(=O)n(C)c(=O)n2C)OCC [Example 8, Diethyl [3-(1,3-dimethylxanthin-7-yl)propyl]phosphonate]
- Force (force under the contraction curve, right/left difference) [2]: -11 Δ %
- Work (performed work, right/left difference) [2]: -7 Δ %
- IC50 [1]: 5 to 10 µg/mL (≈ 14 to 27.9 µM)

Structure (SMILES): CCOCn1cnc2c1c(=O)n(CCCP(=O)(OCC)OCC)c(=O)n2C [Example 36, Diethyl [3-(7-ethoxymethyl-3-methylxanthin-1-yl)propyl]phosphonate]
- IC50 [1]: 5 to 15 µg/mL (≈ 12.4 to 37.3 µM)

Structure (SMILES): CCOP(=O)(CCCCCn1c(=O)c2c(ncn2CCC(C)C)n(C)c1=O)OCC [Example 56]
- Force (force under the contraction curve, right/left difference) [2]: 0 Δ %
- Work (performed work, right/left difference) [2]: 0 Δ %

Structure (SMILES): CCOP(=O)(CCCCn1c(=O)c2c(ncn2CCC(C)C)n(C)c1=O)OCC [Example 41, Diethyl {4-[7-(3-methylbutyl)-3-methylxanthin-1-yl)butyl]phosphonate]
- PDE III Inhibition (phosphodiesterase III): 56%

Structure (SMILES): CCOP(=O)(OCC)C(C)(C)CCCCn1c(=O)c2c(ncn2CCOC)n(C)c1=O [Example 22, Diethyl [5-(7-methoxyethyl-3-methylxanthin-1-yl)-1,1-dimethylpentyl]-phosphonate]
- Force (force under the contraction curve, right/left difference) [2]: -3 Δ %
- Work (performed work, right/left difference) [2]: -13 Δ %
- Muscle weight (right/left difference) (soleus muscle): 0 Δ %

Structure (SMILES): CCOP(=O)(CCCCn1c(=O)c2c(ncn2CCCCP(=O)(OCC)OCC)n(C)c1=O)OCC [Example 7, Diethyl 4-{7-[4-(diethoxyphosphoryl)butyl]-3-methylxanthin-1-yl}butyl-phosphonate]
- IC50 [1]: 3 to 6 µg/mL (≈ 5.45 to 10.9 µM)

Structure (SMILES): CCOP(=O)(CCCCn1c(=O)c2[nH]cnc2n(CC)c1=O)OCC [Example 37, Diethyl [4-(3-ethylxanthin-1-yl)butyl]phosphonate]
- IC50 [1]: 1 to 3 µg/mL (≈ 2.69 to 8.06 µM)

Structure (SMILES): CCOCn1cnc2c1c(=O)n(CCCCP(=O)(O)O)c(=O)n2C.N.N [Example 28, Diammonium [4-(7-ethoxymethyl-3-methylxanthin-1-yl)butyl]phosphonate]
- IC50 [1, 3]: 3 to 9 µg/mL

Structure (SMILES): CCOP(=O)(CCCCn1cnc2c1c(=O)n(CCCCC(C)(C)O)c(=O)n2C)OCC [Example 5]
- Force (force under the contraction curve, right/left difference) [2]: +10 Δ %
- Work (performed work, right/left difference) [2]: +10 Δ %
- Muscle weight (right/left difference) (soleus muscle): 0 Δ %

From patent publication US5728686A, “Alkylxanthine phosphonates and alkylxanthine phosphine oxides and their use as pharmaceuticals” (Hoechst Aktiengesellschaft, priority 1996, dated 1998)
